Results taken from US20260184708A1, “PYRIDAZINONES AND METHODS OF USE THEREOF” (GFB (ABC), LLC, priority 2017, published 2026).

Target: T1, TRPC5 (Homo sapiens, UniProt Q9UL62)
T1 construct: expressed in transfected cells; host or cells: HEK 293
T1 sequence (Q9UL62 1-973): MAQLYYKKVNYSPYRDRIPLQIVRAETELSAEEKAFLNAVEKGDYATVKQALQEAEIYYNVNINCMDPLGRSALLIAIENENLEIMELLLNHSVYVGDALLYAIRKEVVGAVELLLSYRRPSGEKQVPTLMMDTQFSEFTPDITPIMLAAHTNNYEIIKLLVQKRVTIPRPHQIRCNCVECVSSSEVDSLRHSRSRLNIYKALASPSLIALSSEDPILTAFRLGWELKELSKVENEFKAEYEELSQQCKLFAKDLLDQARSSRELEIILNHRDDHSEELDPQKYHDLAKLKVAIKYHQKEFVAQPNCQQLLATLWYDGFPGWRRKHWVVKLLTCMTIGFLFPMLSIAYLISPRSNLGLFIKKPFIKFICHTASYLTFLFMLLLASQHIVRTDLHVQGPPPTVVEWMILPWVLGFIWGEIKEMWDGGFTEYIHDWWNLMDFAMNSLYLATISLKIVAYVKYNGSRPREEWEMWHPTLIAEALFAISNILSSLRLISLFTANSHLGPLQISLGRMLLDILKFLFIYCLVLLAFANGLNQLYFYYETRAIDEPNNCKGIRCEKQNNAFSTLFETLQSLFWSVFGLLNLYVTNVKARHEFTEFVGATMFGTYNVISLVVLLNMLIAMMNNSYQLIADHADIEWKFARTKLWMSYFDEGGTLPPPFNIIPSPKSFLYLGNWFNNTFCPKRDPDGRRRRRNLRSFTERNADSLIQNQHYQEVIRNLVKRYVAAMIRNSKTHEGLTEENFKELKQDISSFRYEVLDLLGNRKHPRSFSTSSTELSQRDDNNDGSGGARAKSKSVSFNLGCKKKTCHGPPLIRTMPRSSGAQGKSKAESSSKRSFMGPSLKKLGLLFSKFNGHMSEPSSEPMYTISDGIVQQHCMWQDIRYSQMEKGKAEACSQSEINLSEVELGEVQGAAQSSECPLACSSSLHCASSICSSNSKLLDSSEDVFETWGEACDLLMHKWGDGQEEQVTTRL
Assay: TRPC5 Fluorescence Assay - FLIPR format (HEK-TREx hTRPC5, Riluzole stimulation)
Format: cell-based
Details: Table 10, read-out: TRPCS-FLIPR IC50
In short: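 Tetracycline-induced HEK-TREx hTRPC5 cells loaded with Fluo-4 AM in EBSS were preincubated 5 min with compound (final 30 μM to 0.0001 μM, 0.3% DMSO), then stimulated with 30 μM Riluzole. Peak fluorescence over 5 min gave % inhibition, normalised to a 1 μM reference inhibitor.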

Row | IC50 [nM] | SMILES
1 | 0.01 to 1000 | O=c1[nH]ncc(N2CCc3c(c(=O)[nH]n3Cc3ccccc3C(F)F)C2)c1Cl [drawing 1052]
2 | 0.01 to 1000 | COc1nn(Cc2ccccc2C(F)F)c2c1CN(c1cn[nH]c(=O)c1Cl)CC2 [drawing 1056]
3 | 0.01 to 1000 | O=c1[nH]ncc(N2CCc3c(ncn3Cc3cccnc3CC(F)F)C2)c1Cl [drawing 1058]
4 | 0.01 to 1000 | CCc1ncccc1[C@H](C)n1nnc2c1CCN(c1cn[nH]c(=O)c1Cl)C2 [drawing 1059]
5 | 0.01 to 1000 | CN1CCN(Cc2nn(Cc3ccccc3C(F)F)c3c2CN(c2cn[nH]c(=O)c2Cl)CC3)C(=O)C1 [drawing 1111]

Target: T2, TRPC4 (Homo sapiens, UniProt Q9UBN4)
T2 construct: expressed in transfected cells; host or cells: HEK-TREx (HekTrex-293), cell line ICLN-1694, tetracycline-induced
T2 sequence (Q9UBN4 1-982 isoform Q9UBN4-5): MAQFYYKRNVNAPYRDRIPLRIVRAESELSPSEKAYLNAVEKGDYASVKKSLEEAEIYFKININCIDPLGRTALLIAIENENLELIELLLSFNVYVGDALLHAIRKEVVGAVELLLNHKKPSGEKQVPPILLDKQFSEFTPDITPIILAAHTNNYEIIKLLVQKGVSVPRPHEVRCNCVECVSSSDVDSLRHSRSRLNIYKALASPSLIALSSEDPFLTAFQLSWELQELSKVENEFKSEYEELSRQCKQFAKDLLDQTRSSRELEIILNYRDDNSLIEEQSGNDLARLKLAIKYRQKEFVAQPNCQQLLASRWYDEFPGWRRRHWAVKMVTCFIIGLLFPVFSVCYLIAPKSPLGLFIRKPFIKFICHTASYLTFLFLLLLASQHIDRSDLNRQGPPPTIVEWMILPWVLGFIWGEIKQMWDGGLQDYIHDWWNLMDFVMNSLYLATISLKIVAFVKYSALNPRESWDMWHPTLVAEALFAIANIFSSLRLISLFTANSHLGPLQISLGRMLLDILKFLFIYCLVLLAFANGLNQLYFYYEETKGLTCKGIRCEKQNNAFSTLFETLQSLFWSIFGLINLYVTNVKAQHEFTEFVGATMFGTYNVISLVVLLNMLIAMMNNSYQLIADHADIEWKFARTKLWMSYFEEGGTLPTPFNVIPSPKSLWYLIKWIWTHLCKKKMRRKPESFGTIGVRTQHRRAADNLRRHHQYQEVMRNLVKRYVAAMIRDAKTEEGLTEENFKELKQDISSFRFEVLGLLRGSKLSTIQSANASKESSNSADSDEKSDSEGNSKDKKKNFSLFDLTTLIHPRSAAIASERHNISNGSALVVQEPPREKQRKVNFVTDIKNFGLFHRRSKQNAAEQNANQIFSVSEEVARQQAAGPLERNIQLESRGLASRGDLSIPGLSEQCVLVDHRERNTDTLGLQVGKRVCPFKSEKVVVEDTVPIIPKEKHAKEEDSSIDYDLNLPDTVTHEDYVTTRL
Assay: TRPC4 FLIPR Assay (HEK-TREx hTRPC4, Englerin A stimulation)
Format: cell-based
Details: not given
Procedure: FLIPR Assay Buffer (Earls Balanced Salt Solution (EBSS)) was prepared as follows:
10-point dose response curves were generated using the Echo-550 acoustic dispenser. Compound source plates were made by serially diluting compound stocks to create 10 mM, 1 mM, and 0.1 mM solutions in DMSO into Echo certified LDV plates. The Echo then serially spotted 100% DMSO stock solutions into source dose response plates to generate a 4-fold dilution scheme. 100% DMSO was added to the spotted dose response plates to bring the final volume to 5 μl. […] of the dose response stock plate was then spotted into pre-incubation and stimulation assay plates. […] of pre-incubation buffer and 100 μl of stimulation buffer was then added to the plates resulting in a final assay test concentration range of 30 μM to 0.0001 μM with a final DMSO concentration of 0.3%.
Experimental Methods: Cells expressing TRPC4 were plated onto 384 well, black pdl-coated microplates and maintained in TRPC4 growth media the day prior to use for experiments. TRPC4 expression was induced by the application of 1 μg/ml tetracycline at the time of plating. […] Cells were incubated at room temperature, protected from light, for 60-90 minutes. After the incubation period, the dye was removed and replaced with 10 μl of EBSS. Cell, pre-incubation and stimulation plates were loaded onto the FLIPR-II and the assay was initiated. The FLIPR measured a 10 second baseline and then added 10 μl of 2× compounds (or controls). Changes in fluorescence were monitored for an additional 5 minutes. After a 5 minute pre-incubation, 20 μl of 2× Englerin A (with 1× compound or controls) was added to the cell plate. The final Engerlin A stimulation concentration in the assay is 100 nM. After the Englerin A addition, changes in fluorescence were monitored for an additional 5 minutes.
Test Agent Effect: Test agent modulation of TRPC4 calcium response was determined as follows. After the Englerin A, fluorescence was monitored for a 5 minute period. The maximum relative fluorescence response (minus the control response of […] of the control inhibitor) was captured and exported from the FLIPR. Test agent effect was calculated as % inhibition using the following formula: % inhibition=((RFU TEST AGENT−Plate Average RFU REF INHIB)/(Plate Average RFU CONTROL−Plate Average RFU REF INHIB))×100

Row | IC50 [nM] | SMILES
6 | 0.01 to 1000 | O=C1CN(c2cn[nH]c(=O)c2Cl)CCN1Cc1cc(F)ccc1C(F)(F)F

Same assay, conditions: Table 8; HEK-TREx hTRPC4; read-out: TRPC4 FLIPR IC50

Row | IC50 [nM] | SMILES
7 | 1000 to 5000 | C[C@@H](c1ccccc1)n1nnc2c1CCN(c1cn[nH]c(=O)c1Cl)C2
8 | 5000 to 10000 | Cc1ccccc1CN1C[C@@H](C)N(c2cn[nH]c(=O)c2Cl)CC1=O
9 | 0.01 to 1000 | O=c1[nH]ncc(N2CCc3c(ncn3Cc3ccccc3OC(F)(F)F)C2)c1Cl
10 | 0.01 to 1000 | CCc1ncccc1CN1CCN(c2cn[nH]c(=O)c2Cl)CC1
11 | 5000 to 10000 | CCc1ncccc1CN1CCN(c2cn[nH]c(=O)c2Cl)C(C)C1 (stereo not shown)
12 | 0.01 to 1000 | O=C1CN(c2cn[nH]c(=O)c2Cl)CCN1Cc1ccccc1Cl
13 | 0.01 to 1000 | O=C1CN(c2cn[nH]c(=O)c2Cl)CCN1Cc1ccccc1C(F)F
14 | 5000 to 10000 | CCc1ncccc1CN1CCN(c2cn[nH]c(=O)c2C#N)CC1
15 | 0.01 to 1000 | CCc1ccccc1Cn1cnc2c1CCN(c1cn[nH]c(=O)c1Cl)C2
16 | 0.01 to 1000 | C[C@@H](c1ccccc1C(F)(F)F)n1nnc2c1CCN(c1cn[nH]c(=O)c1C#N)C2
17 | 1000 to 5000 | CCc1nccc(C)c1CN1CCN(c2cn[nH]c(=O)c2Cl)CC1
18 | 0.01 to 1000 | CC(c1ccc(F)cc1C(F)F)n1[nH]c(=O)c2c1CCN(c1cn[nH]c(=O)c1Cl)C2 (stereo not shown)
19 | 0.01 to 1000 | Cc1ccccc1CN1CCN(c2cn[nH]c(=O)c2Br)CC1=O
20 | 0.01 to 1000 | Cc1ccccc1[C@@H](C)N1CCN(c2cn[nH]c(=O)c2Cl)CC1=O
21 | 0.01 to 1000 | C[C@@H](c1ccc(F)cc1C(F)(F)F)n1nnc2c1CCN(c1cn[nH]c(=O)c1Cl)C2
22 | 0.01 to 1000 | Cc1ccccc1Cn1cnc2c1CCN(c1cn[nH]c(=O)c1Cl)C2 [drawing 938]
23 | 0.01 to 1000 | O=c1[nH]ncc(N2CCc3c(ncn3Cc3ccccc3)C2)c1Cl [drawing 939]
24 | 0.01 to 1000 | C[C@H](c1ccccc1)n1cnc2c1CCN(c1cn[nH]c(=O)c1Cl)C2 [drawing 940]
25 | 0.01 to 1000 | O=c1[nH]ncc(N2CCc3c(ncn3Cc3ccc(F)cc3C(F)(F)F)C2)c1Cl [drawing 942]
26 | 0.01 to 1000 | O=c1[nH]ncc(N2CCc3c(ncn3Cc3ccccc3C(F)(F)F)C2)c1Cl [drawing 944]

Row | IC50 [nM] | SMILES
27 | 0.01 to 1000 | O=c1[nH]ncc(N2CCc3c(nnn3Cc3ccccc3C(F)(F)F)C2)c1Cl [drawing 948]
28 | 0.01 to 1000 | O=c1[nH]ncc(N2CCc3c(ncn3Cc3ccccc3C(F)(F)F)C2)c1Br [drawing 950]
29 | 0.01 to 1000 | O=c1[nH]ncc(N2CCc3c(cnn3Cc3ccc(F)cc3C(F)(F)F)C2)c1Cl [drawing 951]
30 | 0.01 to 1000 | O=c1[nH]ncc(N2CCc3c(ncn3Cc3ccccc3C(F)F)C2)c1Cl [drawing 952]
31 | 1000 to 5000 | O=c1[nH]ncc(N2CCc3c(ncn3-c3ccccc3C(F)(F)F)C2)c1Cl [drawing 954]
32 | 1000 to 5000 | N#Cc1c(N2CCc3c(ncn3Cc3ccccc3C(F)(F)F)C2)cn[nH]c1=O [drawing 956]
33 | 0.01 to 1000 | CCc1cc(F)ccc1Cn1cnc2c1CCN(c1cn[nH]c(=O)c1Cl)C2 [drawing 958]
34 | 1000 to 5000 | N#Cc1c(N2CCc3c(nnn3Cc3ccccc3C(F)(F)F)C2)cn[nH]c1=O [drawing 959]
35 | 0.01 to 1000 | O=c1[nH]ncc(N2CCc3c(ncn3Cc3ccc(F)cc3C(F)F)C2)c1Cl [drawing 960]
36 | 0.01 to 1000 | C[C@@H](c1ccccc1C(F)(F)F)n1nnc2c1CCN(c1cn[nH]c(=O)c1Cl)C2 [drawing 962]
37 | 0.01 to 1000 | COCc1ccccc1Cn1cnc2c1CCN(c1cn[nH]c(=O)c1Cl)C2 [drawing 965]
38 | 1000 to 5000 | COCc1ncccc1Cn1cnc2c1CCN(c1cn[nH]c(=O)c1Cl)C2 [drawing 966]
39 | 0.01 to 1000 | C[C@@H]1Cc2c(nnn2[C@@H](C)c2ccccc2C(F)(F)F)CN1c1cn[nH]c(=O)c1Cl [drawing 968]
40 | 0.01 to 1000 | C[C@H](c1ccccc1C(F)(F)F)n1nnc2c1CCN(c1cn[nH]c(=O)c1Cl)[C@H]2C [drawing 970]
41 | 0.01 to 1000 | CCS(=O)(=O)c1nc2c(n1Cc1ccccc1C(F)(F)F)CCN(c1cn[nH]c(=O)c1Cl)C2 [drawing 971]
42 | 0.01 to 1000 | O=c1[nH]ncc(N2CCc3c(c(=O)[nH]n3Cc3ccccc3C(F)(F)F)C2)c1Cl [drawing 972]
43 | 0.01 to 1000 | C[C@@H]1Cc2c(nnn2[C@@H](C)c2ccc(F)cc2C(F)(F)F)CN1c1cn[nH]c(=O)c1Cl [drawing 974]
44 | 0.01 to 1000 | CN1CCN(Cc2nn(Cc3ccccc3C(F)F)c3c2CN(c2cn[nH]c(=O)c2Cl)CC3)C(=O)C1 [drawing 975]
45 | 0.01 to 1000 | C[C@H](c1ccc(F)cc1C(F)(F)F)n1nnc2c1CCN(c1cn[nH]c(=O)c1Cl)[C@H]2C [drawing 976]
46 | 0.01 to 1000 | C[C@H](c1ccccc1C(F)F)n1nnc2c1CCN(c1cn[nH]c(=O)c1Cl)C2 [drawing 977]
